Measurements reported in paper PMC7721913 (The Journal of Cell Biology, 2020).
Like-named read-outs stand apart in the source and are kept apart here. Values belong to the substance of their own block, whether it stands above or below them. Ends that are not written are not given here.

Legend:
[1] = molecular target: KLC1 TPR1-6 fragment (KLC1: 205-501) (Homo sapiens, UniProt Q07866); test: ITC binding of SFPQ peptides to KLC1
SFPQ = test: Coimmunoprecipitation of endogenous SFPQ from DRG lysate, Western blot; type: binding, rat; conditions: DRG sensory neuron lysate
KLC1 TPR1-6 = conditions: cited from earlier work

Sequence of KLC1 TPR1-6 fragment (KLC1: 205-501) (Q07866 205-501): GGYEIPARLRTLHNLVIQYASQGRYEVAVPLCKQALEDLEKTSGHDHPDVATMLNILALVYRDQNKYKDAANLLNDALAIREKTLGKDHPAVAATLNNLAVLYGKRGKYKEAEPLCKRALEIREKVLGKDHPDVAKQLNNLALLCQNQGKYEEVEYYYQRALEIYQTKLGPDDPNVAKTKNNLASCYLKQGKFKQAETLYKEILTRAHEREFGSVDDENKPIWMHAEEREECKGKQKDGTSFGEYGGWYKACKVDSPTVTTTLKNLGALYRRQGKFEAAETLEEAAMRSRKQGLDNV

- binding to KLC1 (in words) ([1]; ITC, 25°C, pH 7.5): did not bind to KLC1
- ΔS ([1]; ITC, 20 mM Hepes (pH 7.5), 150 mM NaCl, 0.5 mM TCEP, 2% DMSO, 25°C): No binding
- ΔH ([1]; ITC, 20 mM Hepes (pH 7.5), 150 mM NaCl, 0.5 mM TCEP, 2% DMSO, 25°C, single-site model): No binding
Substance: ESEMEDAAHEHQANLLR [SFPQ^Y527A peptide]

Substance: KIF1A: axonal transport motor protein in DRGs
- coimmunoprecipitation with SFPQ (in words) (SFPQ): none of these kinesins significantly coimmunoprecipitates with SFPQ

Substance: TCPTEDIYLE [JIP1: TCPTEDIYLE]
- Kd (KLC1 TPR1-6; KLC1: 205-502, ref Nguyen et al., 2018): 5 ± 0.5 µM

Substance: KIF3A: kinesin transporting RNA granules in neurons
- coimmunoprecipitation with SFPQ (in words) (SFPQ): none of these kinesins significantly coimmunoprecipitates with SFPQ

Substance: ESEMEDAYHEHQANLLR [WT SFPQ peptide]
- Kd [1]: 3.83 ± 2.31 µM

Substance: EYTCPTEDIYLE [JIP1: EYTCPTEDIYLE]
- Kd (KLC1 TPR1-6; KLC1: 228-495, ref Zhu et al., 2012): 9.4 ± 5.85 µM
